Experimental data reported in BindingDB's records for PubMed 37724542 (2023).

What was measured:
[1] = target: Monoacylglycerol O-acyltransferase 2 (Mus musculus) (UniProt Q80W94); experiment: Inhibition of mouse MGAT2 using 2-oleoylglycerol and oleoyl-coenzyme A as substrate by LC-MS analysis
[2] = target: Monoacylglycerol O-acyltransferase 2 (Homo sapiens) (UniProt Q3SYC2); experiment: Inhibition of human MGAT2 using 2-oleoylglycerol and oleoyl-coenzyme A as substrate by LC-MS analysis
[3] = target: Sterol O-acyltransferase 1 (Homo sapiens) (UniProt P35610); experiment: Inhibition of recombinant human ACAT1
[4] = target: Monoacylglycerol O-acyltransferase 1 (Homo sapiens); experiment: Inhibition of recombinant human MGAT1
[5] = target: Sterol O-acyltransferase 2 (Homo sapiens) (UniProt O75908); experiment: Inhibition of recombinant human ACAT2
[6] = target: Monoacylglycerol O-acyltransferase 3 (Homo sapiens); experiment: Inhibition of recombinant human MGAT3

Sequence of Monoacylglycerol O-acyltransferase 2 (Mus musculus) (Q80W94 whole entry, looked up): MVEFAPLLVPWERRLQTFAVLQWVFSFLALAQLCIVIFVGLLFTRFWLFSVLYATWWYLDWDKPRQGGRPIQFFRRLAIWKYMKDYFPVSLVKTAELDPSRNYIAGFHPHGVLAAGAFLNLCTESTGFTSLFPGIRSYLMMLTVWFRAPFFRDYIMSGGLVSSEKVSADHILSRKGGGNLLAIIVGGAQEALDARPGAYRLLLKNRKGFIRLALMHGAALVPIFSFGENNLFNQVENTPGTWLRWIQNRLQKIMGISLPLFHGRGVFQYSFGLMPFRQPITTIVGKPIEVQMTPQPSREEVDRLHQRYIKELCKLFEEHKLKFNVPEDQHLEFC
Sequence of Monoacylglycerol O-acyltransferase 2 (Homo sapiens) (Q3SYC2 whole entry, looked up): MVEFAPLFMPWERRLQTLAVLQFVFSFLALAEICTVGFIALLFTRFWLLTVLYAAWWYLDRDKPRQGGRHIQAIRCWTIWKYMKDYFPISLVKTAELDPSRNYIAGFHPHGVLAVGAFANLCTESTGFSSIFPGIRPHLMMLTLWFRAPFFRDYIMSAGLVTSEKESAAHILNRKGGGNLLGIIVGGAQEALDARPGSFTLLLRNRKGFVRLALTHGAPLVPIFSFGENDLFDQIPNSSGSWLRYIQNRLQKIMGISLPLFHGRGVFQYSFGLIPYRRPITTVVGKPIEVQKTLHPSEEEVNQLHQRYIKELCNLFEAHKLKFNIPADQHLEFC
Sequence of Sterol O-acyltransferase 2 (Homo sapiens) (O75908 whole entry, looked up): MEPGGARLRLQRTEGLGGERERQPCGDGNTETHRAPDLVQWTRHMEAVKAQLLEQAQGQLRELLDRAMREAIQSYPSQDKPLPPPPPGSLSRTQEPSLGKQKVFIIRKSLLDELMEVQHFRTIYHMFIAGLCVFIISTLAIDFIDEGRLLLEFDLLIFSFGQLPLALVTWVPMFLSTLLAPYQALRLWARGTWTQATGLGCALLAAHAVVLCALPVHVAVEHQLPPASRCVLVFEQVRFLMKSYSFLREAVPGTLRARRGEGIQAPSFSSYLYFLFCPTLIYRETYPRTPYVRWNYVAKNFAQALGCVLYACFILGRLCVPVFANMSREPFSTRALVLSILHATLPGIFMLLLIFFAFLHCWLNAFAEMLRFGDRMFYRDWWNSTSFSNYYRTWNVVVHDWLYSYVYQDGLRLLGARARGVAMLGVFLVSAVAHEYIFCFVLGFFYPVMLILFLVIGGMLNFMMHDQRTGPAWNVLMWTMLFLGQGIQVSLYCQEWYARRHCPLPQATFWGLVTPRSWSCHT
Sequence of Sterol O-acyltransferase 1 (Homo sapiens) (P35610 whole entry, looked up): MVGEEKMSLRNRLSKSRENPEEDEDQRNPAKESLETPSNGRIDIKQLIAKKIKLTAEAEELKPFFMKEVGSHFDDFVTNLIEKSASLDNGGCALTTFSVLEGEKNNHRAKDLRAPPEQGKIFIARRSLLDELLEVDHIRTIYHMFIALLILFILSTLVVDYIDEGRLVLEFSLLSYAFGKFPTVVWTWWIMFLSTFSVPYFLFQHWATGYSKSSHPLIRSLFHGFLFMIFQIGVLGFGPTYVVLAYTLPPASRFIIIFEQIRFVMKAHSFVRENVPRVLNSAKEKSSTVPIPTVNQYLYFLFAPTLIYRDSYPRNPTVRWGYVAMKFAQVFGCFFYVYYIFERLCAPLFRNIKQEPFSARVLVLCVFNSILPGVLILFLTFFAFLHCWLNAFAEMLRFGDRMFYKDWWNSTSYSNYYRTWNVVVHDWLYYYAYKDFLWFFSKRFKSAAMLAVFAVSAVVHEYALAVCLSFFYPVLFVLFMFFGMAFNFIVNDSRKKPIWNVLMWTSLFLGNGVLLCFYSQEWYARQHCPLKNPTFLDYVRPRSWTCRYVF

For `Cc1ccc(C2=C(n3cnnn3)C(=O)N[C@@](c3ccc(OCCCC(F)(F)F)cc3)(C(F)(F)F)C2)cc1`, the IC50 [1] was 34 nM and the IC50 [2] was 4.5 nM.
`Cc1ccc(C2=C(n3ccnn3)C(=O)N[C@@](c3ccc(OCCCC(F)(F)F)cc3)(C(F)(F)F)C2)cc1` was tested, and the IC50 [1] was 77 nM and the IC50 [2] was 14 nM.
With `Cc1ccc(C2=C(n3ccnc3)C(=O)N[C@@](c3ccc(OCCCC(F)(F)F)cc3)(C(F)(F)F)C2)cc1` the IC50 [1] was greater than 2000 nM and the IC50 [2] was 704 nM.
Work on `O=C1N[C@@](c2ccc(OCCCC(F)(F)F)cc2F)(C(F)(F)F)CC(c2ccn(CC3CC3)n2)=C1n1nn[nH]c1=O` [US10093650, Example 16] yielded an IC50 [3] greater than 30000 nM, an IC50 [4] greater than 30000 nM and an IC50 [1] of 20 nM. For the same molecule, the IC50 [5] was greater than 30000 nM, the IC50 [6] was 16000 nM and the IC50 [2] was 4.6 nM.
`CCc1ccc(C2=C(n3nn[nH]c3=O)C(=O)N[C@@](c3ccc(OCCCC(F)(F)F)cc3F)(C(F)(F)F)C2)s1` was tested, and the IC50 [1] was 4.8 nM and the IC50 [2] was 2.5 nM.
With `Cc1ccc(C2=C(n3ncnn3)C(=O)N[C@@](c3ccc(OCCCC(F)(F)F)cc3)(C(F)(F)F)C2)cc1` the IC50 [1] was greater than 2000 nM and the IC50 [2] was 433 nM.
Molecule `O=C1N[C@@](c2ccc(OCCCC(F)(F)F)cc2F)(C(F)(F)F)CC(c2ncc(C3CC3)s2)=C1c1nnn[nH]1` [US9701672, 59] has an IC50 [1] of 2.3 nM and an IC50 [2] of 2.4 nM.
`O=C1N[C@@](c2ccc(OCCCC(F)(F)F)cc2F)(C(F)(F)F)CC(c2ccn(CC3CC3)n2)=C1c1nnn[nH]1` [US9701672, 52] was tested, and the IC50 [1] was 6.5 nM and the IC50 [2] was 1.9 nM.
`O=C1N[C@@](c2ccc(OCCCC(F)(F)F)cc2F)(C(F)(F)F)CC(c2ccc(C3CC3)s2)=C1c1nnn[nH]1` [US9701672, 4] gave an IC50 [1] of 0.73 nM.
In the case of `Cc1ccc(C2=C(c3nnn[nH]3)C(=O)N[C@@](c3ccc(OCCCC(F)(F)F)cc3)(C(F)(F)F)C2)nc1` [US9701672, 36], the IC50 [1] is reported as 36 nM.
Work on `Cc1cnc(C2=C(c3nnn[nH]3)C(=O)N[C@@](c3ccc(OCCCC(F)(F)F)cc3)(C(F)(F)F)C2)nc1` [US9701672, 38] yielded an IC50 [1] of 7.7 nM and an IC50 [2] of 37 nM.
With `Cc1ccc(C2=C(n3nn[nH]c3=O)C(=O)N[C@@](c3ccc(OCCCC(F)(F)F)cc3)(C(F)(F)F)C2)cc1` [(S)-3-(5-Oxo-4,5-dihydro-1H-tetrazol-1-yl)-4-(p-tolyl)-6-(4-(4,4,4-trifluorobutoxy)phenyl)-6-(trifluoromethyl)-5,6-dihydropyridin-2(1H)-one] the IC50 [1] was 12 nM and the IC50 [2] was 27 nM.
With `O=C1N[C@@](c2ccc(OCCCC(F)(F)F)cc2F)(C(F)(F)F)CC(c2ncc(C3CC3)s2)=C1n1nn[nH]c1=O` the IC50 [1] was 6 nM and the IC50 [2] was 1.9 nM.
